Data from PubChem BioAssay (NCI).
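96-well plates; 48 h exposure; 5 concentrations. Endpoints by linear interpolation between flanking doses. Not reached: highest tested concentration assigned. Abbreviation: GI50, concentration required for 50% inhibition of growth. At the TGI there is no net growth.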

Legend:
Test in all cases: NCI-60 cell line screen, 48 h
[1] = tested on: A549 NSCLC
[2] = tested on: NCI-H522 lung
[3] = tested on: HOP-62 NSCLC
[4] = tested on: U251 CNS
[5] = tested on: HCC-2998 colon
[6] = tested on: CAKI-1 renal
[7] = tested on: CCRF-CEM leukemia
[8] = tested on: SF-295 CNS
[9] = tested on: NCI/ADR-RES ovarian
[10] = tested on: T-47D breast

Row | Structure (SMILES) | TGI [1] [µM] | TGI [2] [µM] | TGI [3] [µM] | TGI [4] [µM] | TGI [5] [µM] | TGI [6] [µM] | TGI [7] [µM] | TGI [8] [µM] | GI50 [9] [µM] | TGI [9] [µM] | GI50 [1] [µM] | GI50 [2] [µM] | GI50 [3] [µM] | GI50 [4] [µM] | GI50 [5] [µM] | GI50 [7] [µM] | GI50 [8] [µM] | TGI [10] [µM] | GI50 [6] [µM] | GI50 [10] [µM]
1 | CN(C)C(=S)/N=c1\ss/c(=N\C(=S)N(C)C)n1Cc1ccco1 | > 100 | > 100 | > 100 | > 100 | > 100 | > 100 | > 100 | – | – | – | – | – | – | – | – | – | – | – | – | –
2 | CN(C(=O)C12C3C4C1C1C2C3C41C(O)C(C)(C)C)C(C)(C)C (configuration not stated) | > 100 | > 100 | > 100 | > 100 | > 100 | > 100 | > 100 | > 100 | – | – | – | – | – | – | – | – | – | – | – | –
3 | O=S1c2ccccc2NC(c2ccc3ccccc3c2)CC1c1ccccc1 (configuration not stated) | > 100 | 42.4 | > 100 | – | 36 | 79 | 38 | 55 | – | – | – | – | – | – | – | – | – | – | – | –
4 | CCSc1ccc([C@@H]2[C@@H](N)C(=O)N2c2cc(OC)c(OC)c(OC)c2)cc1 | > 100 | 0.0966 | > 100 | > 100 | > 100 | – | > 100 | > 100 | 0.13 | > 100 | 0.108 | 0.0238 | 0.06 | 0.061 | 0.755 | 0.0439 | 0.0515 | – | – | –
5 | Oc1ccc2ccccc2c1N=Nc1ccc(Cl)cc1 | > 100 | > 100 | > 100 | > 100 | – | > 100 | > 100 | > 100 | – | > 100 | – | – | – | – | – | – | – | > 100 | – | –
6 | C[N+](C)(C)CC(CC(=O)[O-])C1CC1 (configuration not stated) | > 100 | > 100 | > 100 | > 100 | – | > 100 | > 100 | > 100 | – | – | – | – | – | – | – | – | – | – | – | –
7 | O=C(O)c1cn(C2CC2)c2cc(N3CCNCC3)c(F)cc2c1=O | > 100 | > 100 | > 100 | – | > 100 | > 100 | > 100 | – | > 100 | > 100 | > 100 | > 100 | > 100 | – | 98 | > 100 | – | > 100 | > 100 | 70
8 | COc1ccc(-c2nnc(SCC(=O)Nc3ccc(C(=O)/C=C/c4cc(OC)c(OC)c(OC)c4)cc3)n2-c2ccccc2)cc1OC | > 10 | – | > 10 | > 10 | > 10 | > 10 | > 10 | > 10 | > 10 | > 10 | 4.33 | – | 8.52 | 5.39 | 3.08 | 2.84 | > 10 | > 10 | 8.57 | 4.74
9 | O=c1ccn(C2(CO)C=C(CO)C(O)C2O)c(=O)[nH]1 (configuration not stated) | > 25.7 | > 25.7 | > 25.7 | > 25.7 | > 25.7 | > 25.7 | – | – | – | – | – | – | – | – | – | – | – | – | – | –
10 | O=C(Cc1ccc(Nc2ccnc(C(F)(F)F)c2)cc1)Nc1cc(Cl)ccc1O | > 100 | – | 32.5 | 23.6 | 28.4 | 43.7 | 7.63 | 11.9 | 3.46 | 24.5 | 15.3 | – | 12.5 | 6.46 | 13.6 | 1.68 | 3.06 | 11.3 | 13.7 | 2.77
11 | CCCC(=O)c1ccc(=O)n(C)c1 | > 100 | > 100 | > 100 | > 100 | > 100 | > 100 | > 100 | > 100 | – | – | – | – | – | – | – | – | – | – | – | –
12 | CCCCCCCCCCCCCCCC(=O)OCC1OC(OC)C(NC(=O)N(CCCl)N=O)C(O)C1O (configuration not stated) | 35.2 | 34.7 | 31.9 | 27 | 48.2 | 45.4 | 53.7 | 24.7 | – | 58.9 | – | – | – | – | – | – | – | – | – | –
13 | COc1ccc(/C=C\c2cc(OC)c(OC)c(OC)c2)cc1OCC(=O)Nc1nc2ccccc2s1 | > 100 | 0.338 | > 100 | > 32.9 | > 100 | > 35.8 | > 100 | 0.646 | – | – | 0.31 | 0.049 | 0.298 | 0.0416 | 0.447 | 0.134 | 0.22 | > 69.6 | 0.309 | 1.59
14 | CCCC(C)c1c(Cl)nc(Cl)nc1Cl (configuration not stated) | 29.4 | 5.32 | 20.6 | 21.2 | 29.9 | – | > 100 | 37 | – | > 100 | – | – | – | – | – | – | – | 29 | – | –
15 | Nc1c(C(=O)NC23CC4CC(CC(C4)C2)C3)[n+]([O-])c2ccccc2[n+]1[O-] | > 100 | > 100 | > 100 | > 100 | > 100 | > 100 | > 100 | > 100 | – | – | – | – | – | – | – | – | – | – | – | –
16 | Cc1cn([C@H]2C[C@H](O)[C@@H](CO)O2)c(=O)nc1N | > 100 | > 100 | > 100 | > 100 | – | > 100 | > 100 | > 100 | – | > 100 | – | – | – | – | – | – | – | > 100 | – | –
17 | COc1ccc(OC(C)C(=O)O)c2c1CCCC2=O (configuration not stated) | > 100 | > 100 | > 100 | > 100 | > 100 | – | > 100 | > 100 | – | – | – | – | – | – | – | – | – | – | – | –
18 | CC(C)CN1CC(C)C(=O)NC1=O (configuration not stated) | > 100 | > 100 | > 100 | > 100 | – | > 100 | > 100 | > 100 | – | – | – | – | – | – | – | – | – | – | – | –
19 | O=C1/C(=C/c2ccc(Cl)c(Cl)c2)CNC/C1=C\c1ccc(Cl)c(Cl)c1 | 67.1 | 26.7 | 38.8 | 11.9 | 21.7 | 24.3 | 5.68 | 76.6 | – | 14.1 | – | – | – | – | – | – | – | – | – | –
20 | COc1ccc(N=Nc2c(-c3ccccc3)nn(C(=O)CC(=O)Nc3ccccc3Cl)c2-c2ccccc2)cc1 | > 100 | > 100 | > 100 | > 100 | > 100 | > 100 | > 100 | > 100 | – | – | – | – | – | – | – | – | – | – | – | –
21 | CC(C)C[CH2][Ge]([CH2]CC(C)C)([CH2]CC(C)C)[CH2]CC(C)C | > 100 | > 100 | > 100 | > 100 | – | > 100 | > 100 | > 100 | > 100 | > 100 | > 100 | > 100 | > 100 | > 100 | – | > 100 | > 100 | > 100 | > 100 | > 100
